pIC50: −log10 of the molar value.
Experiments:
IKKε = IKKε (Homo sapiens (Human), UniProt Q14164); test: IKKε TR-FRET enzymatic assay; assay type: biochemical; settings: read-out: IKKe IC50
TBK1 = TBK1 (Homo sapiens (Human), UniProt Q9UHD2); test: TBK1 TR-FRET enzymatic assay;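 also: phosphorylation of a biotinylated Ser/Thr peptide by purified full-length recombinant TBK1, read by TR-FRET after 240 min at 25 °C, IC50 is the geometric mean of at least four runs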
hJAK2 = hJAK2 (Homo sapiens (Human), UniProt O60674); test: hJAK2 LANCE TR-FRET enzymatic assay; assay type: biochemical; settings: read-out: JAK2 IC50
Chain of hJAK2 (O60674 whole entry): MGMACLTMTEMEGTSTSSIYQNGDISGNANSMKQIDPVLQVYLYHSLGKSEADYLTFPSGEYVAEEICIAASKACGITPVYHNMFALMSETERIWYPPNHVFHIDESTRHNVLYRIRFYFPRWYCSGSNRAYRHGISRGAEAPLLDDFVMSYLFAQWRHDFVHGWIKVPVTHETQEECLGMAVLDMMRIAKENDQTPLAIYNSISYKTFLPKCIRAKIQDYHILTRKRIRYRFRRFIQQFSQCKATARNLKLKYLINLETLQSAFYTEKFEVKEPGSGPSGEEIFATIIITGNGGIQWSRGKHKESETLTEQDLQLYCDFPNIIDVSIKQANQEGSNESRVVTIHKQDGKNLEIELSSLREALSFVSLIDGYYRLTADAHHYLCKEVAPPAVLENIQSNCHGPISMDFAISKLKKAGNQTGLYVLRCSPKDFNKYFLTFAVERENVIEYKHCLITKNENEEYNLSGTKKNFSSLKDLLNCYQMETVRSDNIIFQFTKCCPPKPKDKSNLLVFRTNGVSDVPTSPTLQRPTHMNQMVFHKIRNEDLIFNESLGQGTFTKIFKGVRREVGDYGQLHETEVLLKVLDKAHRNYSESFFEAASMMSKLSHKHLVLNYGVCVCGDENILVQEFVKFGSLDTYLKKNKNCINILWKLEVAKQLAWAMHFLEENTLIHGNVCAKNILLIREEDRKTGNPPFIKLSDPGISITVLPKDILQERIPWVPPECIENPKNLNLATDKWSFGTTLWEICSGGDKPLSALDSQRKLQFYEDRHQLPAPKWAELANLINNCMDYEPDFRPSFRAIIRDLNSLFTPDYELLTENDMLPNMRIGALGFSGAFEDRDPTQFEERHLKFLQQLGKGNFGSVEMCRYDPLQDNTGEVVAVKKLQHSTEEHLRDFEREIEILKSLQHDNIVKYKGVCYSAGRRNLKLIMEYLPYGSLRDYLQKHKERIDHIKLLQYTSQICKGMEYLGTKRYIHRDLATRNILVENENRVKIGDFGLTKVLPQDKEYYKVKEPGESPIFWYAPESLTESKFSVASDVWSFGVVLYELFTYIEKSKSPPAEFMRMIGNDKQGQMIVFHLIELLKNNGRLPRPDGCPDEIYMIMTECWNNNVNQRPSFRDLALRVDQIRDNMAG

Chain of TBK1 (Q9UHD2 whole entry): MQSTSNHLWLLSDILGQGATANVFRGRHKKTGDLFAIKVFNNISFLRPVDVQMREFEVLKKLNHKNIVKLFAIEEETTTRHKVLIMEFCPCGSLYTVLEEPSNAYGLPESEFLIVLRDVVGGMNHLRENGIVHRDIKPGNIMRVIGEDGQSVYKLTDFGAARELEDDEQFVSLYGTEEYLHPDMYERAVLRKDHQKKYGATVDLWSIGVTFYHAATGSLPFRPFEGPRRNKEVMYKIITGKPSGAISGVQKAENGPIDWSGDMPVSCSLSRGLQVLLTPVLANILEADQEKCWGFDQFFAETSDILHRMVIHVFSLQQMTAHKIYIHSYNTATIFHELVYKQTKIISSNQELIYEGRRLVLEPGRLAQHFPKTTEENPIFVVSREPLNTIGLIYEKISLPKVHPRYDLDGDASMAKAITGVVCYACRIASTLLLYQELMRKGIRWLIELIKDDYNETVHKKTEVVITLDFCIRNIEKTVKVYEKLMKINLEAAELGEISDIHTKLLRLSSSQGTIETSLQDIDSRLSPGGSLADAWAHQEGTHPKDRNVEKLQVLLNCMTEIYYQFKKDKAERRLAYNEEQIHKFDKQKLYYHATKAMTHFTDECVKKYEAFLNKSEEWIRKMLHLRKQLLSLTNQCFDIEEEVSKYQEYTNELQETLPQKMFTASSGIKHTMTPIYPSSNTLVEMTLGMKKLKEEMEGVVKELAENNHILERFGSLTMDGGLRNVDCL
Chain of IKKε (Q14164 whole entry): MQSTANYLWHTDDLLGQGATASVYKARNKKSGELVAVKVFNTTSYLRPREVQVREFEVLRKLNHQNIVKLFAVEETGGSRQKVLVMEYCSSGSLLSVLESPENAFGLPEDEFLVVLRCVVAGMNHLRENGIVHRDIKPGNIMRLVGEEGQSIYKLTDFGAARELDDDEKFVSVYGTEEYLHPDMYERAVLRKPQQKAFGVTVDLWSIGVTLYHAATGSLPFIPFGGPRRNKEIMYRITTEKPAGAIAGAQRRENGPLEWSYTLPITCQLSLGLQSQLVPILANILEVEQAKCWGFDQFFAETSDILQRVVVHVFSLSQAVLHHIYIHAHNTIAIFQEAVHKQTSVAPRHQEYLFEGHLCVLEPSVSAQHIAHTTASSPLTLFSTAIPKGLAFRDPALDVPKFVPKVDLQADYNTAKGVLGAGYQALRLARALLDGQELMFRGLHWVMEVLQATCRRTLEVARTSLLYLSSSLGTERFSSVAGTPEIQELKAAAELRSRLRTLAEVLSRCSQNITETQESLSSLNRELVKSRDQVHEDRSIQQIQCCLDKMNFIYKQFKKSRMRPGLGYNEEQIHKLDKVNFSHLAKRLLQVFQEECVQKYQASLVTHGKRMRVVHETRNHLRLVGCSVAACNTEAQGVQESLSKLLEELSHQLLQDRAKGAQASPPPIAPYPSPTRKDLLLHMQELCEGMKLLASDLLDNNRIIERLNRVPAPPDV

Row | pIC50 (IKKε) | pIC50 (TBK1) | pIC50 (hJAK2) | Structure (SMILES)
1 | 9.00 | 8.52 | 6.84 | C[C@H]1CN(C2COC2)CCN1c1ccc(Nc2ncnc(-c3ccc(O[C@H]4CCN(C(=O)c5cnc[nH]5)C[C@H]4F)c(C#N)c3)n2)cc1 [Example 256, 2-(((3R,4S)-3-fluoro-1-(1H-imidazole-5-carbonyl)piperidin-4-yl)oxy)-5-(4-((4-((S)-2-methyl-4-(oxetan-3-yl)piperazin-1-yl)phenyl)amino)-1,3,5-triazin-2-yl)benzonitrile]
2 | 9.00 | 8.70 | 6.57 | C[C@H]1CN(C2COC2)CCN1c1ccc(Nc2ncnc(-c3ccc(O[C@H]4CCN(C(=O)c5ccn[nH]5)C[C@H]4F)c(C#N)c3)n2)cc1 [Example 257, 2-(((3R,4S)-3-fluoro-1-(1H-pyrazole-5-carbonyl)piperidin-4-yl)oxy)-5-(4-((4-((S)-2-methyl-4-(oxetan-3-yl)piperazin-1-yl)phenyl)amino)-1,3,5-triazin-2-yl)benzonitrile]
3 | 9.00 | 8.52 | 7.18 | C[C@H]1CN(C2COC2)CCN1c1ccc(Nc2ncnc(-c3ccc(O[C@H]4CCN(C(=O)c5cnc[nH]5)CC4(F)F)c(C#N)c3)n2)cc1 [Example 259, 2-(((S)-3,3-difluoro-1-(1H-imidazole-5-carbonyl)piperidin-4-yl)oxy)-5-(4-((4-((S)-2-methyl-4-(oxetan-3-yl)piperazin-1-yl)phenyl)amino)-1,3,5-triazin-2-yl)benzonitrile]
4 | 9.00 | 8.70 | 6.81 | C[C@H](O)C(=O)N1CC[C@H](Oc2ccc(-c3ncnc(Nc4ccc(N5CCN(C6COC6)[C@@H](C)C5)cc4)n3)cc2C#N)C(F)(F)C1 [Example 262, 2-(((S)-3,3-difluoro-1-((S)-2-hydroxypropanoyl)piperidin-4-yl)oxy)-5-(4-((4-((S)-3-methyl-4-(oxetan-3-yl)piperazin-1-yl)phenyl)amino)-1,3,5-triazin-2-yl)benzonitrile]
5 | 8.52 | 8.52 | 6.80 | C[C@H]1CN(c2ccc(Nc3ncnc(-c4ccc(O[C@H]5CCN(C(=O)c6cnn[nH]6)C[C@H]5F)c(C#N)c4)n3)cc2)CCN1C1COC1 [Example 263, 2-(((3R,4S)-3-fluoro-1-(1H-1,2,3-triazole-5-carbonyl)piperidin-4-yl)oxy)-5-(4-((4-((S)-3-methyl-4-(oxetan-3-yl)piperazin-1-yl)phenyl)amino)-1,3,5-triazin-2-yl)benzonitrile]
6 | 9.00 | 8.70 | 6.53 | C[C@H](O)C(=O)N1CC[C@H](Oc2ccc(-c3ncnc(Nc4ccc(N5CCN(C6COC6)[C@@H](C)C5)cc4)n3)cc2C#N)[C@H](F)C1 [Example 264, 2-(((3R,4S)-3-fluoro-1-((S)-2-hydroxypropanoyl)piperidin-4-yl)oxy)-5-(4-((4-((S)-3-methyl-4-(oxetan-3-yl)piperazin-1-yl)phenyl)amino)-1,3,5-triazin-2-yl)benzonitrile]
7 | 8.40 | 8.30 | 6.37 | C[C@H](O)C(=O)N1CC[C@H](Oc2ccc(-c3ncnc(Nc4ccc(N5C[C@@H](C)N(C6COC6)C[C@@H]5C)cc4)n3)cc2C#N)[C@H](F)C1 [Example 265, 5-(4-((4-((2S,5R)-2,5-dimethyl-4-(oxetan-3-yl)piperazin-1-yl)phenyl)amino)-1,3,5-triazin-2-yl)-2-(((3R,4S)-3-fluoro-1-((S)-2-hydroxypropanoyl)piperidin-4-yl)oxy)benzonitrile]
8 | 7.08 | 7.09 | 6.41 | Cc1ncc(C(=O)N2CC[C@H](Oc3ccc(-c4ncnc(Nc5ccc(N6CCN(C7COC7)CC6)cc5)n4)cc3C#N)[C@H](F)C2)n1C [Example 266, 2-(((3R,4S)-1-(1,2-dimethyl-1H-imidazole-5-carbonyl)-3-fluoropiperidin-4-yl)oxy)-5-(4-((4-(4-(oxetan-3-yl)piperazin-1-yl)phenyl)amino)-1,3,5-triazin-2-yl)benzonitrile]
9 | 6.58 | 6.92 | 6.39 | Cn1cncc1C(=O)N1CC[C@H](Oc2ccc(-c3ncnc(Nc4ccc(N5CCN(C6COC6)CC5)cc4)n3)cc2C#N)[C@H](F)C1 [Example 267, 2-(((3R,4S)-3-fluoro-1-(1-methyl-1H-imidazole-5-carbonyl)piperidin-4-yl)oxy)-5-(4-((4-(4-(oxetan-3-yl)piperazin-1-yl)phenyl)amino)-1,3,5-triazin-2-yl)benzonitrile]
10 | 7.16 | 7.92 | 6.28 | N#Cc1cc(-c2ncnc(Nc3ccc(N4CCN(C5COC5)CC4)c(F)c3)n2)ccc1OC1CCS(=O)(=O)CC1 [Example 268, 2-((1,1-dioxidotetrahydro-2H-thiopyran-4-yl)oxy)-5-(4-((3-fluoro-4-(4-(oxetan-3-yl)piperazin-1-yl)phenyl)amino)-1,3,5-triazin-2-yl)benzonitrile]
11 | 7.60 | 7.89 | 6.66 | COC1CN(c2ccc(-c3ncnc(Nc4ccc(N5CCN(C6COC6)CC5)cc4)n3)cc2C#N)C1 [Example 269, 2-(3-methoxyazetidin-1-yl)-5-(4-((4-(4-(oxetan-3-yl)piperazin-1-yl)phenyl)amino)-1,3,5-triazin-2-yl)benzonitrile]
12 | 6.96 | 7.74 | ≤ 6.00 | N#Cc1cc(-c2ncnc(Nc3ccc(N4CCN(C5COC5)CC4)cc3)n2)cc(F)c1OC1CCS(=O)(=O)CC1 [Example 271, 2-((1,1-dioxidotetrahydro-2H-thiopyran-4-yl)oxy)-3-fluoro-5-(4-((4-(4-(oxetan-3-yl)piperazin-1-yl)phenyl)amino)-1,3,5-triazin-2-yl)benzonitrile]
13 | 7.28 | 7.55 | 7.17 | CS(=O)(=O)C1CN(c2ccc(-c3ncnc(Nc4ccc(N5CCN(C6COC6)CC5)cc4)n3)cc2C#N)C1 [Example 272, 2-(3-(methylsulfonyl)azetidin-1-yl)-5-(4-((4-(4-(oxetan-3-yl)piperazin-1-yl)phenyl)amino)-1,3,5-triazin-2-yl)benzonitrile]
14 | 6.55 | 6.86 | 6.88 | CS(=O)(=O)N1CC(Oc2ccc(-c3ncnc(Nc4ccc(N5CCN(C6COC6)CC5)cc4)n3)cc2C#N)C1 [Example 273, 2-((1-(methylsulfonyl)azetidin-3-yl)oxy)-5-(4-((4-(4-(oxetan-3-yl)piperazin-1-yl)phenyl)amino)-1,3,5-triazin-2-yl)benzonitrile]
15 | ≤ 6.00 | 7.33 | ≤ 6.00 | N#Cc1cc(-c2ncnc(Nc3ccc(N4CCN(C5COC5)CC4)cc3)n2)ccc1OC1CN(C(=O)CO)C1 [Example 274, 2-((1-(2-hydroxyacetyl)azetidin-3-yl)oxy)-5-(4-((4-(4-(oxetan-3-yl)piperazin-1-yl)phenyl)amino)-1,3,5-triazin-2-yl)benzonitrile]
16 | 7.33 | 7.74 | ≤ 6.00 | N#Cc1cc(-c2ncnc(Nc3ccc4oc(=O)[nH]c4c3)n2)ccc1OC1CCOCC1 [Example 277, 5-(4-((2-oxo-2,3-dihydrobenzo[d]oxazol-5-yl)amino)-1,3,5-triazin-2-yl)-2-((tetrahydro-2H-pyran-4-yl)oxy)benzonitrile]
